Source: ChEMBL document CHEMBL1121969, “Synthesis and antiviral properties of some 2'-deoxy-5-(fluoroalkenyl)uridines” (1982)
Converted amounts (≈) assume the structure as drawn.

System: Human alphaherpesvirus 1
Assay: Antiviral activity against various strains of Herpes Simplex virus type I
Format: functional
Conditions: read-out: ID50 (the source's name)

Row | SMILES | IC50
1 | O=c1[nH]c(=O)n([C@H]2C[C@H](O)[C@@H](CO)O2)cc1/C(F)=C(\F)Cl.O=c1[nH]c(=O)n([C@H]2C[C@H](O)[C@@H](CO)O2)cc1C(F)=C(Cl)Cl | 24 µg/mL
2 | O=c1[nH]c(=O)n([C@H]2C[C@H](O)[C@@H](CO)O2)cc1C(F)=C(Cl)Cl | 26 µg/mL (≈ 76.2 µM)
3 | Nc1nc2c(ncn2COCCO)c(=O)[nH]1 [ACYCLOVIR] | 0.8 µg/mL (≈ 3.55 µM)
4 | Nc1ncnc2c1ncn2[C@@H]1O[C@H](CO)[C@@H](O)[C@H]1O [ADENOSINE] | 21 µg/mL (≈ 78.6 µM)
5 | O=c1[nH]c(=O)n([C@H]2C[C@H](O)[C@@H](CO)O2)cc1/C=C/Br [BRIVUDINE] | 0.07 µg/mL (≈ 0.21 µM)
6 | O=c1[nH]c(=O)n([C@H]2C[C@H](O)[C@@H](CO)O2)cc1I [IDOXURIDINE] | 4.4 µg/mL (≈ 12.4 µM)
